In PMC2854129, “Spadin, a Sortilin-Derived Peptide, Targeting Rodent TREK-1 Channels: A New Concept in the Antidepressant Drug Design” (PLoS Biology, 2010):

What was measured:
mice [1] = assay: Novelty Suppressed Feeding test (NSF), mice; format: in vivo, mouse; conditions: 4 d; spadin i.v. 10^−6 M, fluoxetine i.p. 3 mg/kg; vs saline
Method: Novelty–suppressed feeding test (NSF). NSF paradigm is a conflict test that elicits competing motivations: the drive to eat and the fear of venturing into the center of a bright arena. Latency to begin eating is used as an index of anxiety- and depression- like behavior. After 4 day treatment (saline or spadin, i.v.) and 24 hours food-deprivation, mice were presented with a food pellet placed in the center of a brightly plastic box (50 x 50 x 20 cm). Latency to begin eating was measured as previously described.

mice [2] = conditions: mouse, in vivo, ip
Method: Supplementary file pbio.1000355.s006.tif: Figure S6 Mouse locomotion activity. To determine whether spadin induced a change in locomotor activity, mice (n = 8 per group) were injected with the saline solution or spadin (10^−5M in 100 µl bolus, i.p.) 30 min before starting the test session. Locomotor activity was monitored individually for 24 h using an infrared photobeam activity monitoring system (Imetronic, Pessac, France), which measured consecutive horizontal beam breaks. Testing was in transparent plastic cages (43×2 0×20 cm^3) with fresh bedding in a grid of 8 cm horizontal infrared beams. Locomotor activity was defined as breaking of consecutive photobeams. Mice were given 1 h habituation session before being treated with spadin or saline. Movements were recorded and totalized for each 5 min period during the first hour and then by 10 min time sections for the next 23 h. Six periods were pooled to obtain data for 1 h of time. Different movements were monitored: the coming-and-going between the back and the front of the cage, climbing, and other movements in the back or the front of the cage. Data are the mean value of 8 animals per condition, bars represent SEM. Mice were kept under standard laboratory conditions: 12∶12 light-dark cycle with free access to food and water during the experiment. […] (0.53 MB TIF) Click here for additional data file.

TREK-1 channel = assay: Whole-cell patch-clamp, hippocampal CA3 pyramidal neurons in brain slices, wild-type mice; format: cell-based, mouse; conditions: no aa; spadin n = 8, fluoxetine n = 5; mean ± SEM; unpublished data
TREK-1 [3] = assay: Whole-cell patch-clamp, cultured hippocampal pyramidal neurons; format: cell-based, mouse
Method: Cortical neurons were prepared from 14 old mouse embryos, whereas hippocampal neurons were prepared from newborn mice. Briefly, dissected brain areas were dissociated and neurons were plated on polylysine-treated 35 or 60 mm dishes and maintained in culture in Neurobasal medium supplemented with B27, Glutamax, and antibiotics for 2 to 3 wk before to be used for electrophysiological or biochemical experiments.
Supplementary file pbio.1000355.s004.tif: Figure S4 Effects of spadin on cultured pyramidal neurons from hippocampus. (A) Cultured pyramidal neuron from hippocampus, with on top, the patch-clamp pipette. Neurons were chosen according to their morphology. (B) Current recorded in response to ramps of potential obtained in the various conditions indicated (aa, arachidonic acid: 10 µM; Spadin: 1 µM; Fluoxetine: 20 µM). Neurons were recorded in the whole-cell configuration of the patch-clamp technique. In voltage-clamp, ramps of potential from −90 mV to 70 mV were applied every 10 s. The % variation of the current amplitude was always measured at −50 mV. The currents were recorded in response to such ramps in control conditions and in the presence of a cocktail of potassium blockers suitable to isolate the TREK currents (10 mM tetraethyl ammonium (TEA), 3 mM 4-aminopyridine (4-AP), 50 nM charybdotoxin, 10 µM glibenclamide, 100 nM apamin). […] The blocks were reversible. (C) Time course of spadin and fluoxetine effects. Applications are indicated by the horizontal bars. (2.03 MB TIF) Click here for additional data file.

[4] = test system: BrdU-positive cells in mouse hippocampus; assay: Hippocampal neurogenesis (BrdU labeling); format: in vivo
Method: Twenty-four hours after the injection of BrdU (120 mg per kg of body weight in a 300 µl bolus), mice were euthanized and transcardially perfused with 4% cold paraformaldehyde. Serial sections of the brains were cut (40 µm) throughout the entire hippocampus on a vibratome (Leica). Every sixth section throughout the hippocampus was processed for BrdU or DCX immunohistochemistry, as previously described. For each immunodetection, slides were first incubated overnight at 4°C with a mouse monoclonal anti-BrdU antibody (1∶200; Becton-Dickinson) or a goat anti-DCX (1∶400; Santa Cruz Laboratories). For chromogenic immunodetection, sections were then incubated for 1 h in biotin-conjugated species-specific secondary antibodies (1∶100; Vector Laboratories) followed by a peroxidase-avidin complex solution according to the manufacturer's protocol. The peroxidase activity of immune complexes was visualized with DAB staining using the VectaStain ABC kit (Vector Laboratories). […] All BrdU-labeled cells in the granular cell layer and SGZ were counted in each section (n = 10 and 5 mice per group) at 400× and 1,000× magnification under a light microscope (Olympus) by an experimenter blinded to the study code. […]

mice [5] = assay: Tail Suspension Test (TST), mice; format: in vivo, mouse; conditions: 4-d fluoxetine 3 mg/kg, vs saline, p>0.05
Method: Tail suspension test (TST). Mice were suspended by the tail. […] The immobility time was recorded during a 6 min test session.

[6] = test system: corticosterone (HPA axis); assay: Stress-induced serum corticosterone levels; format: in vivo, mouse; conditions: fluoxetine i.p. 3 mg/kg, 30 min after 10 min tube restraint, vs saline; n = 10
Method: Mice were individually housed for at least 12 h before blood sample collection. Serum samples, collected in the morning, were obtained by retroorbital puncture before and 30 min after the end of a 10 min tube restraint. Levels of corticosterone were measured by radioimmunoassay using a commercially available kit (MP Biomedicals).

mice [7] = assay: Forced Swimming Test (FST), mice; format: in vivo, mouse
Method: Porsolt forced swim test (FST). Mice (Janvier, France) were placed individually in cylinders (height: 30 cm, diameter: 15 cm) filled with 12 cm deep water (temperature: 22 ±1°C) for 6 min. The total period of immobility was recorded during the last 4 min.

mice [8] = assay: Staircase test; format: in vivo, mouse; conditions: spadin i.p. 10^−5 M or diazepam i.p. 0.5 mg/kg, 30 min before test, vs saline; n = 10
Method: Stair case test. The apparatus comprised an enclosed staircase consisted of five identical steps (2.5 cm in height X 11 cm in width X 7.5 cm in length), each made of black plastic. The height of the walls was constant (12.5 cm above the stairs) along the entire length of the staircase. Each mouse was placed individually on the floor of the staircase with its back to the staircase. A step was considered climbed only if the mouse placed all four paws on it. Rearing was recorded when the mouse rose on its hind legs either on the step or against the wall. The number of steps ascended and the number of rearings made in a 3-min period were recorded. Results were expressed as ratio of rearing/step numbers.

mice [9] = assay: Elevated plus-maze; format: in vivo, mouse; conditions: spadin i.p. 10^−5 M or diazepam i.p. 0.5 mg/kg, 30 min before test, vs saline; n = 10
From the text: Elevated plus-maze. The apparatus consisted of two open and two enclosed arms of the same size (45x5 cm) with walls 15 cm high. The arms, constructed of black acrylic, radiate from a common central platform (5x5 cm) to form a plus sign. Open arms were arranged opposite to one another, as were closed arms. The maze was elevated to a height of 45 cm above floor level. Each mouse was placed in the central platform facing one of the open arms. The number of entries into the open and closed arms and the time spent on the open and closed arms were recorded during a 5 min test period. Time spent in the unprotected open arms as well as the number of entries in open arms in relation to the total of arm entries are used as experimental indices of anxiety.

mice [10] = assay: Light/dark exploration test; format: in vivo, mouse; conditions: spadin i.p. 10^−5 M or diazepam i.p. 0.5 mg/kg, 30 min before test, vs saline; n = 10
Method: Light/dark exploration. The apparatus consisted of a cage (25X40X20 cm) divided into two compartments by a black partition containing a small opening that allows mouse to move from one compartment to the other. One compartment, comprising […] of the surface area, was made of white plastic and was brightly illuminated. The adjoining smaller compartment was black and dark. Mice were placed in the white compartment and allowed to move freely between the two chambers for 5 minutes. The number of transitions between the two compartments, time spent in the white chamber, and latency to the first transition were recorded. Mice tend to avoid the white compartment. Thus the measures of exploration in this area (time and entrances) were used as experimental indices of anxiety.

TREK-1 [11] = molecular target: T1, TREK-1 (Mus musculus, UniProt P97438); assay: Competition binding, 125I-spadin, TREK-1 transfected COS-7 cell homogenates; design: expressed in transfected cells; host or cells: COS-7 cells, DEAE-dextran transfection; conditions: competition, 10^−10 to 10^−5M
T1 sequence (P97438 1-426): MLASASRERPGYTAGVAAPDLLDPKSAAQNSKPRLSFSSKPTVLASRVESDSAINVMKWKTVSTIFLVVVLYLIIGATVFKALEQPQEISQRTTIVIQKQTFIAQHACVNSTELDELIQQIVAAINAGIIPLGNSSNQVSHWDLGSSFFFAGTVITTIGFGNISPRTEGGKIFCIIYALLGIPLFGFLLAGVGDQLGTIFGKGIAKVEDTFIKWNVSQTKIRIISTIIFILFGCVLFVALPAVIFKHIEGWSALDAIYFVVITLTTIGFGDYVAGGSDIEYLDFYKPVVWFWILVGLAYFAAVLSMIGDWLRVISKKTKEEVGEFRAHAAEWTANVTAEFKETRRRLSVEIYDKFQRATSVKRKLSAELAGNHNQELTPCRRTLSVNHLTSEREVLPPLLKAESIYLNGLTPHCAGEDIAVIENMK
Method: For competition experiments, homogenates from TREK-1 transfected COS-7 or C13NJ cells were incubated with 0.2 nM ^125I-spadin or ^125I-NT (200,000 cpm in 250 µl) iodinated and purified as previously described. Incubations were performed in 50 mM Tris-HCl, pH 7.4 containing 0.1% BSA in the presence of increasing concentrations of non-radioactive spadin or NT (10^−10 to 10^−5M). Incubations were terminated by addition of 2 ml of ice-cold binding buffer followed by filtration through cellulose acetate filters (Sartorius, Göttingen, Germany) and washing twice with 2 ml of ice-cold buffer. Radioactivity on filters was counted with a gamma-counter.

C13NJ cells = assay: C13NJ wound-healing (cell migration) assay; format: cell-based; conditions: 10 nM NT in serum free medium; without spadin, or (spadin line) with 1 µM spadin; unstimulated 4%±1%
From the text: A cell-free zone was created within a semi-confluent monolayer of microglial culture by scratching cells off with a pipette tip. We analyzed by time-lapse microscopy how cells repopulated the cell-free zone, as already described. Supplementary file pbio.1000355.s001.tif: Figure S1 […] wound-healing assay. A cell-free zone was created within a semi-confluent monolayer with a pipette tip. We analyzed by time-lapse microscopy how cells repopulated the cell-free zone. The 100% of migrating cells was calculated by stimulation of cell migration with 10% of Fetal Calf Serum (FCS). (0.13 MB TIF) Click here for additional data file.

## CNCCC(Oc1ccc(C(F)(F)F)cc1)c1ccccc1 (stereo not shown) [fluoxetine]
Mice [1]
  latency to feed: no effect
Mice [2]
  locomotor activity: Neither spadin nor fluoxetine had any effect on mouse locomotion
TREK-1 channel
  inhibition of current recorded in presence of potassium blockers, peptide/drug alone: 13.0%±3.8%
TREK-1 [3]; 20 µM fluoxetine, 10 µM aa, at −50 mV
  block of arachidonic acid-evoked current: fully blocked
TREK-1 [3]; spadin 1 µM and fluoxetine 20 µM
  reversibility of block: reversible
[4]; 4-d fluoxetine
  number of BrdU-positive cells: no effect on neurogenesis
[4]; 15 d treatment, spadin 10^−5 M or fluoxetine, n = 5
  number of BrdU-positive cells: significant increase in the number of BrdU-positive cells
Mice [5]
  effect of subchronic treatment: no effect
[6]
  reduction of stress-induced increase in corticosterone levels: 59.1%
Mice [7]; 4-d fluoxetine 3 mg/kg, FST, vs saline, p>0.05
  effect of subchronic treatment: no effect
Mice [7]; 15 d, i.v. once a day, spadin 10^−6 M, fluoxetine 1 mg/kg, vs saline p<0.001, n = 8
  reduction of time of immobility, chronic treatment: around 30%

## CN1C(=O)CN=C(c2ccccc2)c2cc(Cl)ccc21 [diazepam]
Mice [8]
  rearing/step numbers ratio: decrease of the rearing/step numbers ratio
Mice [9]
  time spent in the open arms: significantly reduced the time spent into the aversive open arms
Mice [10]
  light/dark transitions: significantly induced an increase in the number of light/dark transitions

## neurotensin [NT]
TREK-1 [11]
  displacement of 125I-spadin binding: unable to displace the binding of ^125I-spadin
C13NJ cells
  number of cells that migrated, % of migrating cells in presence of 10% FCS: 35.1%±2.3%
